Reference: patent publication US20250145599A1, “CERTAIN CHEMICAL ENTITIES, COMPOSITIONS, AND METHODS” (Retune Pharma Inc., priority 2022, published 2025)
pIC50: −log10 of the molar value.

Assays:
IGF-1R = IGF-1R (Homo sapiens, UniProt P08069); experiment: IGF-1R biochemical assay (ADP-Glo); settings: read-out: IGF1R IC50
Protocol: The inhibitory activity against IGF-1R was measured using ADP-Glo assay. The percent (%) inhibition at each concentration of compound is calculated based on and relative to the luminescence signal in the Max and Min control wells contained within each assay plate. The Max control wells contain enzyme and substrate as 0% inhibition, and the Min control wells only contain substrate without enzyme as 100% inhibition. The concentrations and % inhibition values for tested compounds are plotted and the concentration of compound required for 50% inhibition (IC50) is determined with a four-parameter logistic dose response equation.
Table 3 provides IC50 data of representative compounds against IGF-1R using ADP-Glo assay. The IC50 data are designated within the following ranges: A: ≤0.10 μM, B: >0.10 μM to ≤1 μM, C: >1 μM to ≤20 μM

Ba/F3-TEL-IGF-1R cells = experiment: CellTiter-Glo luminescent cell viability assay; type: cell-based; settings: cellular IC50, Ba/F3-TEL-IGF-1R cells
Protocol: The CellTiter-Glo luminescent cell viability assay was used to determine the inhibitory activity of the compounds against IGF-1R in Ba/F3-TEL-IGF-1R cells. […] The IC50 data are designated within the following ranges: A: ≤1 μM, B: >1 μM to ≤10 μM, C: >10 μM to ≤20 μM

Chain of IGF-1R (P08069 31-1367): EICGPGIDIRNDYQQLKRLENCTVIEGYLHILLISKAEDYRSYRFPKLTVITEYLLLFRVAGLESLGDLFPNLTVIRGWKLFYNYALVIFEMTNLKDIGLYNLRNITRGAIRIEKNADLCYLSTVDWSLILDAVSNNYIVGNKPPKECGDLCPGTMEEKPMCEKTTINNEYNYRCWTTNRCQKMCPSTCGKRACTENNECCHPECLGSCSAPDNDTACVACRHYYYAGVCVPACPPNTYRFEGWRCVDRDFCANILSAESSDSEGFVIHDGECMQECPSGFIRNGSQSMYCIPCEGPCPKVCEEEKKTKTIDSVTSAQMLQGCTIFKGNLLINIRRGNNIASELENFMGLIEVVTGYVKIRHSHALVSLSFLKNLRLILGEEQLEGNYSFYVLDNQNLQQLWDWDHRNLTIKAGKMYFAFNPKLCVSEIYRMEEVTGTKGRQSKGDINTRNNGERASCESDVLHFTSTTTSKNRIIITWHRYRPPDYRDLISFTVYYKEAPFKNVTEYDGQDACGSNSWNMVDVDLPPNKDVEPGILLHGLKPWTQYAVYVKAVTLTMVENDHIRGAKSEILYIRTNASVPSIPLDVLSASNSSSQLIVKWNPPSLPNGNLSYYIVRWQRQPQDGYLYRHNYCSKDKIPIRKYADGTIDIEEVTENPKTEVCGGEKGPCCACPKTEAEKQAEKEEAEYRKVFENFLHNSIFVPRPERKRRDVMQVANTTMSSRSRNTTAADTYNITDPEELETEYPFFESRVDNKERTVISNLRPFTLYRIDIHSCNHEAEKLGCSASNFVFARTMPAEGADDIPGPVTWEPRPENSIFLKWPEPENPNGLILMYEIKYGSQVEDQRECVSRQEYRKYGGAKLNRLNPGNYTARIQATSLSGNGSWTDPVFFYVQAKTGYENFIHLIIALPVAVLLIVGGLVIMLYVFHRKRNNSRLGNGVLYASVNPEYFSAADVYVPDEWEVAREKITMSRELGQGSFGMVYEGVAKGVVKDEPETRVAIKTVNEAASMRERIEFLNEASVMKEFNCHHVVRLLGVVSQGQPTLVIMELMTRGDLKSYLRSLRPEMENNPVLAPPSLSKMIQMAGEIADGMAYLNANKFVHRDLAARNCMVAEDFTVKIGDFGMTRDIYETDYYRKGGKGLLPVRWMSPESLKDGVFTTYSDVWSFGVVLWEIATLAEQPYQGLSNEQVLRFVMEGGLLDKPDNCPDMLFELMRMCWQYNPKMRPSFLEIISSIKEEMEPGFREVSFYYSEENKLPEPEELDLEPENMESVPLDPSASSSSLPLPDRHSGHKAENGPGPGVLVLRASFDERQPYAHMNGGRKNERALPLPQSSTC

| SMILES | pIC50 (IGF-1R) | pIC50 (Ba/F3-TEL-IGF-1R cells) |
| --- | --- | --- |
| COc1c(F)c(-c2ccccc2F)nc2cc(-c3nn([C@H]4C[C@@](C)(O)C4)c(N)c3C(N)=O)ccc12 [Example C063, 5-amino-3-(3-fluoro-2-(2-fluorophenyl)-4-methoxyquinolin-7-yl)-1-((1s,3s)-3-hydroxy-3-methylcyclobutyl)-1H-pyrazole-4-carboxamide] | ≥ 7.00 | ≥ 6.00 |
| COc1cc(-c2ccccc2)nc2c(F)c(-c3nn([C@H]4C[C@@](C)(O)C4)c(N)c3C(N)=O)ccc12 [Example C034, 5-amino-3-(8-fluoro-4-methoxy-2-phenylquinolin-7-yl)-1-((1s,3s)-3-hydroxy-3-methylcyclobutyl)-1H-pyrazole-4-carboxamide] | ≥ 7.00 | ≥ 6.00 |
| COc1cc(-c2cccc(F)c2)nc2cc(-c3nn([C@H]4C[C@@](C)(O)C4)c(N)c3C(N)=O)ccc12 [Example C048, 5-amino-3-(2-(3-fluorophenyl)-4-methoxyquinolin-7-yl)-1-((1s,3s)-3-hydroxy-3-methylcyclobutyl)-1H-pyrazole-4-carboxamide] | ≥ 7.00 | ≥ 6.00 |
| COc1c(F)c(-c2ccccc2F)nc2c(F)c(-c3nn([C@H]4C[C@@](C)(O)C4)c(N)c3C(N)=O)ccc12 [Example C061, 5-amino-3-(3,8-difluoro-2-(2-fluorophenyl)-4-methoxyquinolin-7-yl)-1-((1s,3s)-3-hydroxy-3-methylcyclobutyl)-1H-pyrazole-4-carboxamide] | ≥ 7.00 | ≥ 6.00 |
| NC(=O)c1c(-c2ccc3ccc(-c4ccccc4)nc3c2)nn([C@H]2C[C@H](CN3CCOCC3)C2)c1N [Example C013, 5-amino-1-((1r,3r)-3-(morpholinomethyl)cyclobutyl)-3-(2-phenylquinolin-7-yl)-1H-pyrazole-4-carboxamide] | ≥ 7.00 | ≥ 6.00 |
| COc1cc(-c2ccccc2F)nc2cc(-c3nn([C@H]4C[C@@](C)(O)C4)c(N)c3C(N)=O)ccc12 [Example C046, 5-amino-3-(2-(2-fluorophenyl)-4-methoxyquinolin-7-yl)-1-((1s,3s)-3-hydroxy-3-methylcyclobutyl)-1H-pyrazole-4-carboxamide] | ≥ 7.00 | ≥ 6.00 |
| C[C@]1(O)C[C@@H](n2nc(-c3ccc4ccc(-c5ccccc5F)nc4c3F)c(C(N)=O)c2N)C1 [Example C056, 5-amino-3-(8-fluoro-2-(2-fluorophenyl)quinolin-7-yl)-1-((1s,3s)-3-hydroxy-3-methylcyclobutyl)-1H-pyrazole-4-carboxamide] | ≥ 7.00 | ≥ 6.00 |
| NC(=O)c1c(-c2ccc3ccc(-c4ccccc4)nc3c2)nn([C@H]2C[C@@H](CN3CCOCC3)C2)c1N [Example C012, 5-amino-1-((1s,3s)-3-(morpholinomethyl)cyclobutyl)-3-(2-phenylquinolin-7-yl)-1H-pyrazole-4-carboxamide] | ≥ 7.00 | ≥ 6.00 |
| COc1c(F)c(-c2ccccc2)nc2c(F)c(-c3nn([C@H]4C[C@@](C)(O)C4)c(N)c3C(N)=O)ccc12 [Example C062, 5-amino-3-(3,8-difluoro-4-methoxy-2-phenylquinolin-7-yl)-1-((1s,3s)-3-hydroxy-3-methylcyclobutyl)-1H-pyrazole-4-carboxamide] | ≥ 7.00 | ≥ 6.00 |
| CCOc1cc(-c2ccccc2)nc2c(F)c(-c3nn([C@H]4C[C@@](C)(O)C4)c(N)c3C(N)=O)ccc12 [Example C033, 5-amino-3-(4-ethoxy-8-fluoro-2-phenylquinolin-7-yl)-1-((1s,3s)-3-hydroxy-3-methylcyclobutyl)-1H-pyrazole-4-carboxamide] | ≥ 7.00 | ≥ 6.00 |
| COc1cc(-c2ccccc2)nc2cc(-c3nn([C@H]4C[C@@](C)(O)C4)c(N)c3C(N)=O)c(F)cc12 [Example C051, 5-amino-3-(6-fluoro-4-methoxy-2-phenylquinolin-7-yl)-1-((1s,3s)-3-hydroxy-3-methylcyclobutyl)-1H-pyrazole-4-carboxamide] | ≥ 7.00 | ≥ 6.00 |
| COc1cc(-c2ccccc2)nc2cc(-c3nn([C@H]4C[C@](C)(O)C4)c(N)c3C(N)=O)c(F)cc12 [Example C052, 5-amino-3-(6-fluoro-4-methoxy-2-phenylquinolin-7-yl)-1-((lr,3r)-3-hydroxy-3-methylcyclobutyl)-1H-pyrazole-4-carboxamide] | ≥ 7.00 | – |
| C[C@]1(O)C[C@@H](n2nc(-c3ccc4ccc(-c5ccccc5F)nc4c3)c(C(N)=O)c2N)C1 [Example C037, 5-amino-3-(2-(2-fluorophenyl)quinolin-7-yl)-1-((1s,3s)-3-hydroxy-3-methylcyclobutyl)-1H-pyrazole-4-carboxamide] | ≥ 7.00 | – |
| CN1CCN(C[C@H]2C[C@@H](n3nc(-c4ccc5ccc(-c6ccccc6)nc5c4)c(C(N)=O)c3N)C2)CC1 [Example C019, 5-amino-1-((1s,3s)-3-((4-methylpiperazin-1-yl)methyl)cyclobutyl)-3-(2-phenylquinolin-7-yl)-1H-pyrazole-4-carboxamide] | 6.00 to 7.00 | – |
| C[C@]1(O)C[C@@H](n2nc(-c3ccc4c(OC(F)F)cc(-c5ccccc5)nc4c3)c(C(N)=O)c2N)C1 [Example C053, 5-amino-3-(4-(difluoromethoxy)-2-phenylquinolin-7-yl)-1-((1s,3s)-3-hydroxy-3-methylcyclobutyl)-1H-pyrazole-4-carboxamide] | ≥ 7.00 | – |
| COc1nc(-c2ccccc2)nc2cc(-c3nn([C@H]4C[C@@](C)(O)C4)c(N)c3C(N)=O)ccc12 [Example C064, 5-amino-1-((1s,3s)-3-hydroxy-3-methylcyclobutyl)-3-(4-methoxy-2-phenylquinazolin-7-yl)-1H-pyrazole-4-carboxamide] | 6.00 to 7.00 | – |
| CC(C)n1nc(-c2ccc3ccc(-c4ccccc4)nc3c2)c(C(N)=O)c1N [Example C024, 5-amino-1-isopropyl-3-(2-phenylquinolin-7-yl)-1H-pyrazole-4-carboxamide] | 6.00 to 7.00 | – |
| COC(=O)N1CCC(n2nc(-c3ccc4ccc(-c5ccccc5)nc4c3)c(C(N)=O)c2N)CC1 [Example C004, methyl 4-(5-amino-4-carbamoyl-3-(2-phenylquinolin-7-yl)-1H-pyrazol-1-yl)piperidine-1-carboxylate] | 4.70 to 6.00 | – |
| COc1cc(-c2ccccc2)nc2cc(-c3nn([C@H]4C[C@@](C)(O)C4)c(N)c3C(N)=O)cc(F)c12 [Example C055, 5-amino-3-(5-fluoro-4-methoxy-2-phenylquinolin-7-yl)-1-((1s,3s)-3-hydroxy-3-methylcyclobutyl)-1H-pyrazole-4-carboxamide] | 6.00 to 7.00 | – |
| NC(=O)c1c(-c2ccc3ccc(-c4ccccc4)nc3c2)nn([C@H]2C[C@@H](CN3CCNCC3)C2)c1N [Example C015, 5-amino-3-(2-phenylquinolin-7-yl)-1-((1s,3s)-3-(piperazin-1-ylmethyl)cyclobutyl)-1H-pyrazole-4-carboxamide] | ≥ 7.00 | – |
| COc1cc(-c2cccc(F)c2)nc2cc(-c3nn([C@H]4C[C@](C)(O)C4)c(N)c3C(N)=O)ccc12 [Example C049, 5-amino-3-(2-(3-fluorophenyl)-4-methoxyquinolin-7-yl)-1-((1r,3r)-3-hydroxy-3-methylcyclobutyl)-1H-pyrazole-4-carboxamide] | ≥ 7.00 | – |
| C[C@]1(O)C[C@@H](n2nc(-c3ccc4ccc(-c5ccccn5)nc4c3F)c(C(N)=O)c2N)C1 [Example C057, 5-amino-3-(8-fluoro-2-(pyridin-2-yl)quinolin-7-yl)-1-((1s,3s)-3-hydroxy-3-methylcyclobutyl)-1H-pyrazole-4-carboxamide] | 6.00 to 7.00 | – |
